Data reported in patent US10844017B2, “Biaryl compound, preparation method and use thereof” (FUDAN UNIVERSITY, priority 2017, dated 2020).

Assays:
[1] = tested on: Mouse lymphoma EL4 cells transfected with RORγt plasmid; assay: Determination of the activation rate on mouse lymphoma EL4 (IL-17 generation); assay type: cell-based; conditions: compound at 2 μM, 24 hours, PMA/ionomycin stimulation 4 hours, flow cytometry, read-out: +act % (activation of IL-17 generated by EL4 cells)
Method: Determination of the Activation Rate on Mouse Lymphoma EL4
Mouse lymphoma EL4 cells transfected with RORγt plasmid were cultured at 37° C. under an atmosphere with 5% CO2, with a test compound added simultaneously. After 24 hours, the generation efficiency of IL-17A was analyzed. Before collection of cells, PMA at 50 ng/mL and ionomycin at 500 ng/mL were added for stimulation for 4 hours. The proportion of IL-17 was detected by intracellular staining and flow cytometry. […] The activation rate of IL-17 generated by EL4 cells for the compound was measured at a concentration of 2 μM.

[2] = target: T1, RORγ receptor (B-RORγ LBD / Bioin-SRC1) (Homo sapiens, UniProt P51449); assay: Determination of agonistic activities on RORγ receptors in vitro (dual FRET); assay type: biochemical; conditions: average of at least two independent experiments
T1 construct: 40 nM B-RORγ LBD solution
T1 sequence (P51449 269-508 limits assumed): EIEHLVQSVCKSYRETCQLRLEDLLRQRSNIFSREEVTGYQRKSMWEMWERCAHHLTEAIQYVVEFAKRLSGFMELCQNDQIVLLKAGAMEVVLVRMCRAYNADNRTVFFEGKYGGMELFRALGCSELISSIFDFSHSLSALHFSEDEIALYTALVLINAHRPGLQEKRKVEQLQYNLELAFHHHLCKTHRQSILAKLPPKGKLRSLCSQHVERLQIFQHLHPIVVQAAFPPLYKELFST
T1 sequence (Q15788 676-700 partner limits assumed): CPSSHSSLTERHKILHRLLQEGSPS

[3] = tested on: Mouse spleen CD4+T cells differentiated into Th17 cells; assay: Mouse Th17 cell differentiation, half-maximal effect concentration; assay type: cell-based; conditions: 96 hours, proportion of IL-17 by intracellular staining and flow cytometry
Method: Determination of the Half-Maximal Effect Concentration of Mouse Th17 Cell Differentiation
Experimental methods: Mouse spleen CD4^+T cells were separated and differentiated into Th17 cells. CD4^+T cells were cultured in the environment containing anti-CD3 (0.25 μg/mL), anti-CD28 (1 μg/mL), anti-IL4 (2 μg/mL), anti-IFN-γ (2 μg/mL), TGF-β (5 ng/mL), and IL6 (20 ng/mL), with a test compound added at the same time. After 96 hours, the differentiation efficiency of Th17 was analyzed. Before collection of cells, PMA at 50 ng/mL and ionomycin at 500 ng/mL were added for stimulation for 4 hours, and the proportion of IL-17 was detected by intracellular staining and flow cytometry. Meanwhile, we used Live/Dead Cell Dye (Invitrogen) staining method to analyze the cell survival rate and to judge whether the drug had toxicity to cells, and determined the half-maximal effect concentration EC50 of the compounds.

SMILES	EC50 [2]	EC50 [3]	activation at 2 µM [1]
CCS(=O)(=O)c1ccc(CC(=O)Nc2cc(Cl)c(-c3ccc(CC(C)C)c(C#N)c3)c(Cl)c2)cc1 [Example 16, N-(2,6-Dichloro-3′-cyano-4′-isobutyl-[1,1′-biphenyl]-4-yl)-2-(4-(ethylsulfonyl)phenyl)acetamide]	10 to 50 nM	< 50 nM	> 50%
CC(C)Cc1ccc(-c2c(Cl)cc(NC(=O)Cc3ccc(S(C)(=O)=O)cc3)cc2Cl)cc1C#N [Example 17, N-(2,6-Dichloro-3′-cyano-4′-isobutyl-[1,1′-biphenyl]-4-yl)-2-(4-(methylsulfonyl)phenyl)acetamide]	10 to 50 nM	< 50 nM	> 50%

More lines, main results first:

EC50 [2]	EC50 [3]	SMILES	activation at 2 µM [1]
< 10 nM	< 50 nM	CC(C)Cc1ccc(-c2c(Cl)cc(NC(=O)Cc3ccc(S(N)(=O)=O)cc3)cc2Cl)cc1C#N [Example 21, N-(2,6-Dichloro-3′-cyano-4′-isobutyl-[1,1′-biphenyl]-4-yl)-2-(4-sulfamoylphenyl)acetamide]	20 to 50%
10 to 50 nM	> 150 nM	CC(C)Cc1ccc(-c2c(Cl)cc(NC(=O)Cc3ccc(S(C)(=O)=O)cn3)cc2Cl)cc1C#N [Example 20, N-(2,6-dichloro-3′-cyano-4′-isobutyl-[1,1′-biphenyl]-4-yl)-2-(5-(methylsulfonyl)pyridin-2-yl)acetamide]	> 50%
10 to 50 nM	> 150 nM	CCN(C)Cc1ccc(-c2c(Cl)cc(NC(=O)Cc3ccc(S(=O)(=O)CC)cc3)cc2Cl)cc1C#N [Example 36, N-(2,6-Dichloro-3′-cyano-4′-((ethyl(methyl)amino)methyl)-[1,1′-biphenyl]-4-yl)-2-(4-(ethylsulfonyl)phenyl)acetamide]	> 50%
